Measured values taken from ChEMBL document CHEMBL6071206, “Development of BODIPY FL SNS 032 as a Versatile Probe for Constitutive Androstane Receptor and Multiple Kinases” (ACS Med Chem Lett, 2024).
The source made the active and inactive calls. The calls are words filed in the database; no cut-off is given here.

Legend:
[1] = target: T1, Nuclear receptor subfamily 1 group I member 3 (Homo sapiens, UniProt Q14994); experiment: Inhibition of GST-tagged human CAR LBD at 90 uM incubated for 90 mins in presence of Cy5-PGC1-alpha by HTRF co-activator assay relative to control; settings: 1.5 h, read-out: Imax
T1 sequence (Q14994 whole entry): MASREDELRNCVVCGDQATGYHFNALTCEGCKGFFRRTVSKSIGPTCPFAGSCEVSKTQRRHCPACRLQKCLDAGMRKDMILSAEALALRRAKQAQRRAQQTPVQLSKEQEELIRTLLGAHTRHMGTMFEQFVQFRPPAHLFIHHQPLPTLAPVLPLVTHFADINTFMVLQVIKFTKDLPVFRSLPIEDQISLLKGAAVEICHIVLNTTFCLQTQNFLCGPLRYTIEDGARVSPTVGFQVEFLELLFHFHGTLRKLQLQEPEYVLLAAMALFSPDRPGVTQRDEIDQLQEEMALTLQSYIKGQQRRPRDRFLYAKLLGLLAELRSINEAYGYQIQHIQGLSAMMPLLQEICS

[2] = target: T1, Nuclear receptor subfamily 1 group I member 3; experiment: Inhibition of GST-tagged human CAR LBD at 100 uM incubated for 90 mins by TR-FRET assay relative to control; settings: 1.5 h, read-out: Imax
[3] = target: T1, Nuclear receptor subfamily 1 group I member 3; experiment: Inhibition of GST-tagged human CAR LBD incubated for 90 mins by TR-FRET assay
[4] = target: T2, Calcium/calmodulin-dependent protein kinase kinase 2 (Homo sapiens, UniProt Q96RR4); experiment: Inhibition of GST-tagged human CAMKK2 incubated for 90 mins by TR-FRET assay
T2 sequence (Q96RR4 whole entry): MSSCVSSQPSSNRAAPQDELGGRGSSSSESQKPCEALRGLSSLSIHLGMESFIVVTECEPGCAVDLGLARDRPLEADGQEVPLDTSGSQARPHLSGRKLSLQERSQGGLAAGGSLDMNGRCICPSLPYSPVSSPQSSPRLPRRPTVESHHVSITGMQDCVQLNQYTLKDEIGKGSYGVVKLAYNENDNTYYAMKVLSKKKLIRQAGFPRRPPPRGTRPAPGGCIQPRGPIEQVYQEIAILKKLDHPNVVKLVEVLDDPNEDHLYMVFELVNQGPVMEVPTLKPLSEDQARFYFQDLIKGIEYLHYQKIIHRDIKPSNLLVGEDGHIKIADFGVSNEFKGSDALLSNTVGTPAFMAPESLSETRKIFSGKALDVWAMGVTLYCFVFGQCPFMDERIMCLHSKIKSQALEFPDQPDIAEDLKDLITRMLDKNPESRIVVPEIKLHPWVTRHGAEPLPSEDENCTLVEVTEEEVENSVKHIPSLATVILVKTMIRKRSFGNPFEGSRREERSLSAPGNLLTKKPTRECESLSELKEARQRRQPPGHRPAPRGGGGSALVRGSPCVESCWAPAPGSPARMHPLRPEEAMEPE

[5] = target: T3, Mitogen-activated protein kinase 15 (Homo sapiens, UniProt Q8TD08); experiment: Inhibition of Flag/His-tagged human MAPK15 incubated for 90 mins by TR-FRET assay
T3 sequence (Q8TD08 whole entry): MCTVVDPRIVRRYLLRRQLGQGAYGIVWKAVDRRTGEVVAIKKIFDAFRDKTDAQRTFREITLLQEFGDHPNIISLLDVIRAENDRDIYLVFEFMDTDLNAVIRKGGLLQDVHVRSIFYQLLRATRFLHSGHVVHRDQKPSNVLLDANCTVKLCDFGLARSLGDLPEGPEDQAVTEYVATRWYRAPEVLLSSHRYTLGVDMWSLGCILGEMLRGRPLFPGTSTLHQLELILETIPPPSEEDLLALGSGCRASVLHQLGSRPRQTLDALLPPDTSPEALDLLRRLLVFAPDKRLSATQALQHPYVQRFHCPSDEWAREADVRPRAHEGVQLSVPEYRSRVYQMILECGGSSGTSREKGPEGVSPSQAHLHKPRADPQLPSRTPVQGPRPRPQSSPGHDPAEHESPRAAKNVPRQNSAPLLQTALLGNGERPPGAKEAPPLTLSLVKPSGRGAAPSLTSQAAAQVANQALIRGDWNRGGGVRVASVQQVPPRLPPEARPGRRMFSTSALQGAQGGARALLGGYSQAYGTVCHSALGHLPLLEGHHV

[6] = target: T4, Glycogen synthase kinase-3 alpha (Homo sapiens, UniProt P49840); experiment: Inhibition of GST-tagged human GSK3A incubated for 90 mins by TR-FRET assay
T4 sequence (P49840 whole entry): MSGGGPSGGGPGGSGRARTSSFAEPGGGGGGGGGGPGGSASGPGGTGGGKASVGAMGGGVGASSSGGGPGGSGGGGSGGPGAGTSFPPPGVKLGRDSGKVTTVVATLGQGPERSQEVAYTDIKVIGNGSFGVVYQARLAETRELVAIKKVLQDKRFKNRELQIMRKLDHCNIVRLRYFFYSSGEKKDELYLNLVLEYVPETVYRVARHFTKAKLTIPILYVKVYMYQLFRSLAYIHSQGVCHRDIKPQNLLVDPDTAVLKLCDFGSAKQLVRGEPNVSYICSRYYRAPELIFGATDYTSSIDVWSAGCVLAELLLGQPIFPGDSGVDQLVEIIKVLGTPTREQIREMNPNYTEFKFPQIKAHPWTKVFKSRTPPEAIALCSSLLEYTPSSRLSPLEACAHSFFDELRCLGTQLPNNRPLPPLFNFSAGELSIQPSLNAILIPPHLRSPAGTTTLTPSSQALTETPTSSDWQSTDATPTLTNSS

CDK9/cyclin T1 [7] = target: T5, CDK9/cyclin T1 (Homo sapiens, UniProt P50750); experiment: Binding affinity to His-tagged human CDK9/CycT1 assessed as dissociation constant incubated for 90 mins by TR-FRET assay; format: protein-complex assay
T5 sequence (O60563 whole entry): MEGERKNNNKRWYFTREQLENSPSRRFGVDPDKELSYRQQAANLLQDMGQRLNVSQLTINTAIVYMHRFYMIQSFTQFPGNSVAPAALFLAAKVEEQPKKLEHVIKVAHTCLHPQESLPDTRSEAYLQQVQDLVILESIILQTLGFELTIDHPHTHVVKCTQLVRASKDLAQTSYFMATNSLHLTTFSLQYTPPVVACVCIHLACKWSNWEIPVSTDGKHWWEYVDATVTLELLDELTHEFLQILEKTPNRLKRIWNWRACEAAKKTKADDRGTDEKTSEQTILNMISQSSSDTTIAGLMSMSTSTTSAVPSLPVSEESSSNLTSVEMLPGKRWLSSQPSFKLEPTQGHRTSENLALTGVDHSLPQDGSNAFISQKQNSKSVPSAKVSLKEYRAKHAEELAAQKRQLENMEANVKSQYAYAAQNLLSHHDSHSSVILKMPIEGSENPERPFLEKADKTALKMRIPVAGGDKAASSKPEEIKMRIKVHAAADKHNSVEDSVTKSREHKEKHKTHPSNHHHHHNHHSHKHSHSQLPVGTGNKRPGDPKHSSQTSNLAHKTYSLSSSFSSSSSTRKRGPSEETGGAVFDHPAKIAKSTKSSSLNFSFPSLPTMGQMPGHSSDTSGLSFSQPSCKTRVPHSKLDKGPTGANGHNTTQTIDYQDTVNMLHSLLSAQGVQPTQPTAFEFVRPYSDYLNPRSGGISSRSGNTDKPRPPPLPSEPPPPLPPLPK
T5 sequence (P50750 whole entry): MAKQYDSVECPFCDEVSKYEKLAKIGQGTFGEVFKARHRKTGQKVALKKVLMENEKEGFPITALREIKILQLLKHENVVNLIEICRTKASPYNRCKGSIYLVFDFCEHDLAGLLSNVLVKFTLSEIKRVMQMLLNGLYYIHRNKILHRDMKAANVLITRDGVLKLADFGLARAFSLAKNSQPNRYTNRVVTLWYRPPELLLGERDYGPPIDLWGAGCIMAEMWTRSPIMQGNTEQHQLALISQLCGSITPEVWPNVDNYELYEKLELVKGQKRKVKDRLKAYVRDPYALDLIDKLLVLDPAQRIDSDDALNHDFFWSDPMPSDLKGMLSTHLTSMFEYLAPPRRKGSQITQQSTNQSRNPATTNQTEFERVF

[8] = target: T6, Peripheral plasma membrane protein CASK (Homo sapiens, UniProt O14936); experiment: Binding affinity to GST-tagged human CASK assessed as dissociation constant incubated for 90 mins by TR-FRET assay
T6 sequence (O14936 whole entry): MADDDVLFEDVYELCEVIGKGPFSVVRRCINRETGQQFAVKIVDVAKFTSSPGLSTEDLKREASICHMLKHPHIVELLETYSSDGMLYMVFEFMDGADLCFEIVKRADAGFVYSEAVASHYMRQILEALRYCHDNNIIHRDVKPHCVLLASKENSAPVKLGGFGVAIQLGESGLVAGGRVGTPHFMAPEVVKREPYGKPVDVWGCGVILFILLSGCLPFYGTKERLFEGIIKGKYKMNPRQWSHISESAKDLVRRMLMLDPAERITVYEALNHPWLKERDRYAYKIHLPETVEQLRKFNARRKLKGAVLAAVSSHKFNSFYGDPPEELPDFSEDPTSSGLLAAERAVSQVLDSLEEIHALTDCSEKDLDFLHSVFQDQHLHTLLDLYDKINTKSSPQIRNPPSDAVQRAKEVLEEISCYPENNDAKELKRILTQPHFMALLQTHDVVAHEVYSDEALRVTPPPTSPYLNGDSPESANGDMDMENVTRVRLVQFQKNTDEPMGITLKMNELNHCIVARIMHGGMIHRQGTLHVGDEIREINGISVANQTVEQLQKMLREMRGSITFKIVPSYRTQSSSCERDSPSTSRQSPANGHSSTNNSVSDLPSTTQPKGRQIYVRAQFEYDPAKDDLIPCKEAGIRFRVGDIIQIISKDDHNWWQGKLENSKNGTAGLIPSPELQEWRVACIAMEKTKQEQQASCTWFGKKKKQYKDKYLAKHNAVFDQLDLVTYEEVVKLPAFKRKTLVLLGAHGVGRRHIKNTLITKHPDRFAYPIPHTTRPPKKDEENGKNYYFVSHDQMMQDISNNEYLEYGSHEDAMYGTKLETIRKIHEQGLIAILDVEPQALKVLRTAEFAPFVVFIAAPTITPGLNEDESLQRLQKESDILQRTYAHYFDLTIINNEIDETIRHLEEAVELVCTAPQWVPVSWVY

[9] = target: T1, Nuclear receptor subfamily 1 group I member 3; experiment: Binding affinity to GST-tagged human CAR LBD assessed as dissociation constant incubated for 90 mins by TR-FRET assay
[10] = target: T7, Dual specificity tyrosine-phosphorylation-regulated kinase 2 (Homo sapiens) (UniProt Q92630); experiment: Binding affinity to GST-tagged human DYRK2 incubated for 90 mins by TR-FRET assay
T7 sequence (whole entry): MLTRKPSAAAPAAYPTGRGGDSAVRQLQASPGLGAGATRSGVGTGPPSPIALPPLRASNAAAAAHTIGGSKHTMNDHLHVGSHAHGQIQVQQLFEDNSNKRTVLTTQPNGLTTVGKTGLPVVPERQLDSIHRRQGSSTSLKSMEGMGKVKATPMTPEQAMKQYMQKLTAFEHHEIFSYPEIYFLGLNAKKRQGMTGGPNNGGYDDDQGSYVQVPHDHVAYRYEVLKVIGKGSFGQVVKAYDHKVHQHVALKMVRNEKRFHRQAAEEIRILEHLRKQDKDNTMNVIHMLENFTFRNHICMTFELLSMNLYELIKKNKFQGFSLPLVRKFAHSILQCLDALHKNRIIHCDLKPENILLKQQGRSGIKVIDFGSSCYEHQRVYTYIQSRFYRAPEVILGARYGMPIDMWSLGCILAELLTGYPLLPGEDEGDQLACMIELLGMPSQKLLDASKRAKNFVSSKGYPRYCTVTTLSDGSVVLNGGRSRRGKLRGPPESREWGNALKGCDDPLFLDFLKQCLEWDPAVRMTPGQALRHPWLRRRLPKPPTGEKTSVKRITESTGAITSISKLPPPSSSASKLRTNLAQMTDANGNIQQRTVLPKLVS

[11] = target: T1, Nuclear receptor subfamily 1 group I member 3; experiment: Inhibition of GST-tagged human CAR LBD at […] incubated for 90 mins in presence of Cy5-PGC1-alpha by HTRF co-activator assay relative to control; settings: 1.5 h, dose 3.3 µM, read-out: Imax
[12] = target: T3, Mitogen-activated protein kinase 15; experiment: Binding affinity to Flag/His-tagged human MAPK15 assessed as dissociation constant incubated for 90 mins by TR-FRET assay
[13] = target: T1, Nuclear receptor subfamily 1 group I member 3; experiment: Binding affinity to GST-tagged human CAR LBD assessed as fold change in FRET signal at 298.2 nM incubated for 90 mins by TR-FRET assay relative to control; settings: 1.5 h, 0.2982 µM
[14] = target: T1, Nuclear receptor subfamily 1 group I member 3; experiment: Binding affinity to GST-tagged human CAR LBD assessed as fold change in FRET signal at 125 nM incubated for 90 mins by TR-FRET assay relative to control; settings: 1.5 h, 0.125 µM
[15] = target: T1, Nuclear receptor subfamily 1 group I member 3; experiment: Inhibition of GST-tagged human CAR LBD incubated for 90 mins in presence of Cy5-PGC1-alpha by HTRF co-activator assay
[16] = target: T4, Glycogen synthase kinase-3 alpha; experiment: Binding affinity to GST-tagged human GSK3A assessed as dissociation constant incubated for 90 mins by TR-FRET assay
[17] = target: T2, Calcium/calmodulin-dependent protein kinase kinase 2; experiment: Binding affinity to GST-tagged human CAMKK2 assessed as dissociation constant incubated for 90 mins by TR-FRET assay
[18] = target: T8, Peripheral plasma membrane protein CASK (Homo sapiens) (UniProt O14936); experiment: Inhibition of GST-tagged human CASK at 90 uM incubated for 90 mins by TR-FRET assay relative to control
T8 sequence (whole entry): T6 sequence (O14936 whole entry)

CDK9/cyclin T1 [19] = target: T5, CDK9/cyclin T1; experiment: Inhibition of His-tagged human CDK9/CycT1 incubated for 90 mins by TR-FRET assay; format: protein-complex assay

CC(C)(C)c1cnc(CSc2cnc(NC(=O)C3CCNCC3)s2)o1 [BMS-387032]
inhibition at 90 µM [1]: 26.4% | inhibition at 100 µM [2]: 50.8% | EC50 [3]: 51100 nM

Cn1cc(C2=C(c3cn(CCCSC(=N)N)c4ccccc34)C(=O)NC2=O)c2ccccc21 [BISINDOLYLMALEIMIDE IX]
IC50 [4]: 161 nM | IC50 [5]: 0.9 nM | IC50 [6]: 0.7 nM

CN1CC[C@@H](c2c(O)cc(O)c3c(=O)cc(-c4ccccc4Cl)oc23)[C@@H]1CO
IC50 [4]: 6500 nM | IC50 [5]: 706 nM | IC50 [6]: 270 nM

O=C(Nc1ccc2c(c1)N(C(=O)Cn1cccc1)c1ccccc1CC2)OC1CCCCC1
IC50 [3]: 12.8 nM

CC[C@H](Nc1nc(NCc2cnc(C)cc2C)c2ncn(C(C)C)c2n1)[C@@H](C)O [CYC-065]
IC50 [4]: 13200 nM | IC50 [5]: 386 nM | IC50 [6]: 11100 nM

Cc1cc(C)n2c1C=C1C=CC(CCC(=O)N3CCC(C(=O)Nc4ncc(SCc5ncc(C(C)(C)C)o5)s4)CC3)=[N+]1[B-]2(F)F
Kd (CDK9/cyclin T1 [7]): 5.1 nM | Kd [8]: 550 nM | Kd [9]: 300 nM | Activity [10]: inactive | inhibition at […] [11]: 95.9% | Kd [12]: 340 nM | fold change (FC) [13]: 9.1 | fold change (FC) [14]: 9.7 | IC50 [15]: 224 nM | Kd [16]: 4.5 nM | Kd [17]: 530 nM

COc1cc(F)ccc1-c1ncnc(Nc2cccc(C[S@](C)(=N)=O)c2)n1 [ATUVECICLIB]
IC50 [4]: 1200 nM | IC50 [5]: 2600 nM | IC50 [6]: 29.1 nM | inhibition [18]: 27.3%

CC(C)(C)c1cnc(CSc2cnc(NC(=O)C3CCN(CC(=O)NCCOCCOCCOCCNc4cccc5c4C(=O)N(C4CCC(=O)NC4=O)C5=O)CC3)s2)o1 (stereo unspecified)
inhibition at 90 µM [1]: 75.4% | inhibition at 100 µM [2]: 43.4% | EC50 [3]: 3100 nM | IC50 [4]: 2700 nM | IC50 [15]: 6600 nM | IC50 [5]: 79.1 nM | IC50 [6]: 8.2 nM | IC50 (CDK9/cyclin T1 [19]): 5.6 nM
